Earlier results in patent US20020055536A1, “System and method for structure-based drug design that includes accurate prediction of binding free energy” (priority 1996, published 2002).

Assays:
HIV-1 protease = molecular target: T1, HIV-1 protease (Human immunodeficiency virus type 1 group M subtype B, UniProt P04585)
T1 construct: The following HIV-1 protease ligands were tested by the method of the present invention

[1] = molecular target: purine nucleoside phosphorylase; conditions: for IC50: 1 mM phosphate, Ki or IC50 not distinguished; for Phosphate sensitivity: change of binding constant upon increase of phosphate to 50 mM

IC50 [1] [µM] | SMILES | Ki (HIV-1 protease) [µM] | Phosphate sensitivity [1]
– | C=CC(C)(C)C(=O)c1cnc(C(Cc2ccccc2)CC(O)C(Cc2ccccc2)NC(=O)OC(C)(C)C)[nH]1 (centres unmarked) [A Boc CMe2CHCH2] | 0.27 | –
– | CCC(=O)c1cnc(C(Cc2ccccc2)CC(O)C(Cc2ccccc2)NC(=O)OC(C)(C)C)[nH]1 (centres unmarked) [A Boc Et] | 0.092 | –
– | CC(C)(C)OC(=O)NC(Cc1ccccc1)C(O)CC(Cc1ccccc1)c1ncc(C=O)[nH]1 (centres unmarked) [A Boc H] | 3.5 | –
– | CC(=O)c1cnc(C(Cc2ccccc2)CC(O)C(Cc2ccccc2)NC(=O)OC(C)(C)C)[nH]1 (centres unmarked) [A Boc Me] | 0.37 | –
– | CC(C)C(=O)c1cnc(C(Cc2ccccc2)CC(O)C(Cc2ccccc2)NC(=O)OC(C)(C)C)[nH]1 (centres unmarked) [A Boc i-Pr] | 0.083 | –
– | CCCC(=O)c1cnc(C(Cc2ccccc2)CC(O)C(Cc2ccccc2)NC(=O)OC(C)(C)C)[nH]1 (centres unmarked) [A Boc n-Pr] | 0.15 | –
– | CC(O)c1cnc(C(Cc2ccccc2)CC(O)C(Cc2ccccc2)NC(=O)OC(C)(C)C)[nH]1 [B Boc Me(R)] | 13.3 | –
– | CC(O)c1cnc(C(Cc2ccccc2)CC(O)C(Cc2ccccc2)NC(=O)OC(C)(C)C)[nH]1 [B Boc Me(S)] | 13.3 | –
– | CC(C)C(O)c1cnc(C(Cc2ccccc2)CC(O)C(Cc2ccccc2)NC(=O)OC(C)(C)C)[nH]1 [B Boc i-Pr(R)] | 2.7 | –
– | CC(C)C(O)c1cnc(C(Cc2ccccc2)CC(O)C(Cc2ccccc2)NC(=O)OC(C)(C)C)[nH]1 [B Boc iPr(S)] | 2.7 | –
– | CC(C)C(NC(=O)C(Cc1ccccc1)CC(O)C(Cc1ccccc1)NC(=O)OC(C)(C)C)c1ncc[nH]1 (centres unmarked) [D CH] | 0.018 | –
– | CC(C)C(NC(=O)C(Cc1ccccc1)CC(O)C(Cc1ccccc1)NC(=O)OC(C)(C)C)c1nnc[nH]1 (centres unmarked) [D N] | 0.0042 | –
360 | Nc1nc2c(ncn2[C@@H]2O[C@H](COP(=O)(O)OP(=O)(O)O)[C@@H](O)[C@H]2O)c(=O)[nH]1 [GDP] | – | low (those whose binding constant changes by a factor of 15 or less upon increase of the concentration of phosphate to 50 mM)
530 | Nc1nc2c(ncn2[C@@H]2O[C@H](COP(=O)(O)O)[C@@H](O)[C@H]2O)c(=O)[nH]1 [GMP] | – | low (those whose binding constant changes by a factor of 15 or less upon increase of the concentration of phosphate to 50 mM)
490 | Nc1nc2c(ncn2[C@@H]2O[C@H](COP(=O)(O)OP(=O)(O)OP(=O)(O)O)[C@@H](O)[C@H]2O)c(=O)[nH]1 [GTP] | – | low (those whose binding constant changes by a factor of 15 or less upon increase of the concentration of phosphate to 50 mM)
– | Nc1nc(O)c2ncn(COCCOP(=O)(O)OP(=O)(O)O)c2n1 [acyclovirDP] | – | high (The highly sensitive molecules are affected in some instances by a factor of 140)
6.6 | Nc1nc2c(ncn2COCCOP(=O)(O)O)c(=O)[nH]1 [acyclovirMP] | – | low (those whose binding constant changes by a factor of 15 or less upon increase of the concentration of phosphate to 50 mM)
0.31 | Nc1nc2c(ncn2COCCOP(=O)(O)OP(=O)(O)OP(=O)(O)O)c(=O)[nH]1 [acyclovirTP] | – | high (The highly sensitive molecules are affected in some instances by a factor of 140)
200 | Nc1nc2c(ncn2COCCO)c(=O)[nH]1 [acyclovir] | – | low (those whose binding constant changes by a factor of 15 or less upon increase of the concentration of phosphate to 50 mM)
300 | Nc1nc2c(ncn2[C@H]2C[C@H](O)[C@@H](COP(=O)(O)O)O2)c(=O)[nH]1 [dGMP] | – | low (those whose binding constant changes by a factor of 15 or less upon increase of the concentration of phosphate to 50 mM)
32 | Nc1nc2c(ncn2[C@H]2C[C@H](O)[C@@H](COP(=O)(O)OP(=O)(O)OP(=O)(O)O)O2)c(=O)[nH]1 [dGTP] | – | high (The highly sensitive molecules are affected in some instances by a factor of 140)
